Measured values published in patent US20250011484A1, “METHODS FOR PREPARING METALLOCENE COMPOUNDS” (Chevron Phillips Chemical Company LP, priority 2023, published 2025).

How the values were obtained:
[1] = Solubility of metallocenes in 1-decene; assay type: physicochemical; settings: ambient temperature (21° C.), visual inspection for solids or haze
Procedure: Additional portions of the desired metallocenes were then added in increments of 3-4 mg and the mixture was allowed to stir for 30 minutes after each addition at ambient temperature (21° C.). The resulting mixtures were visually inspected for solids or significant haze. Metallocenes were considered soluble if significant haze or solids were not observed.

[2] = Ethylene/1-hexene polymerization with metallocene catalyst compositions
Procedure: Polymerization experiments employing catalyst compositions comprising MET-A, MET-B, MET-C, MET-D, MET-E, and MET-F were conducted as follows. Unless otherwise indicated, the polymerization experiments used in the following examples were conducted for […] in a one-gallon (3.8 L) stainless-steel autoclave reactor containing isobutane as diluent. A syringe was charged with 250 mg solid activator-support, 2 mL hexane, 0.5 mL of 1M TIBA (in hexane) and 2.0 mg metallocene (MET-A, MET-B, MET-C, MET-D, MET-E, or MET-F, as noted in Tables III and IV) in that order. The slurry was charged to the reactor under an isobutane purge. The reactor was sealed, charged with 2 L of isobutane, and heated to 80° C. Ethylene was charged to the reactor and fed on demand to maintain the target pressure of 320 psig (2.2 MPa). The reactor was maintained at the target temperature throughout the experiment by an automated heating-cooling system. After venting of the reactor, purging, and cooling, the resulting polymer product was dried under reduced pressure. For Examples 40-41, the polymerization temperature was 90° C., and ethylene pressure was maintained at 390 psig ethylene, with a 1-hexene feed ratio of 20 wt. % vs. ethylene.

[3] = Metallocene-catalyzed oligomerization of 1-decene; settings: 1-decene 675 g, 110° C., 1 hour, 5 mg metallocene, CTSO, TIBA, hydrogen
Procedure: Metallocene-catalyzed oligomerizations were performed using MET-A and MET-D as follows. Generally, 1-decene was oligomerized to an oligomer product of dimers, trimers, and tetramers in the presence of MET-A or MET-D, as noted in Table II below. For Examples 8-9, a 1-gallon batch reactor was charged with 675 g of 1-decene. A syringe was charged with CTSO (0.750 g), TIBA (1.3 mL of a 1.0 M hexane solution), and metallocene (5 mg). The chemically treated solid oxide (CTSO) was a fluorided silica-coated alumina (60:40 alumina:silica by weight) containing 4 wt. % F and having a d50 average particle size of 35 microns, a BET surface area of 450 m^2/g, and a pore volume of 1.1 mL/g. The catalyst mixture was shaken to mix and was then charged to the reactor under a nitrogen purge. The reactor was heated to 110° C. while stirring at 600-900 rpm. […]
The reaction mixture was then filtered and analyzed by gas chromatography to determine the yield of oligomer product formed in the reaction mixture, and to determine the relative amount of certain oligomers within the oligomer product (e.g., the trimer:tetramer weight ratio). […]
The distribution of olefin end groups was determined using ^1H NMR on a Bruker 300 MHz NMR. Spectra were recorded in CDCl3 and are reported relative to SiMe4 as determined by reference to the residual ^1H solvent peak. […]

## Fc1c(F)c(F)c(C[c-]2ccc3ccccc32)c(F)c1F.[Cl-].[Cl-].[Zr+4].c1cc[cH-]c1 (stereo not drawn) [MET-A]
[1]
  Solubility: <0.1 wt. %
[2]; 1-hexene 7.5 g, 80° C., 320 psig, 30 min, isobutane, TIBA
  Support Activity: 1,920 g/(g*h)
[2]; 1-hexene 12 g, 80° C., 320 psig, 30 min, isobutane, TIBA
  Support Activity: 1,776 g/(g*h)
[2]; 1-hexene 17.5 g, 80° C., 320 psig, 30 min, isobutane, TIBA
  Support Activity: 1,872 g/(g*h)
[2]; 1-hexene 30 g, 80° C., 320 psig, 30 min, isobutane, TIBA
  Support Activity: 2,144 g/(g*h)
[2]; Table IV, 1-hexene 49 g, 90° C., 390 psig ethylene, 1-hexene feed ratio 20 wt. %
  Support Activity: 2937 g/g/h
[3]
  Activity: 75,060 g/(g*h)

## CCCC[c-]1cccc1.Fc1c(F)c(F)c(C[c-]2ccc3ccccc32)c(F)c1F.[Cl-].[Cl-].[Zr+4] (stereo not drawn) [MET-G]
[1]
  Solubility: 0.4 wt. %
[2]; Table IV, 1-hexene 51 g, 90° C., 390 psig ethylene, 1-hexene feed ratio 20 wt. %
  Support Activity: 1392 g/g/h
